≈ marks a conversion by molar mass, not a printed value. Calls of active or inactive are those of the source. No cut-off for these calls is given here.
How the values were obtained:
[1] = Cytotoxicity against HK-2 cells incubated for 48 hrs by CCK8 assay; assay type: toxicity, cell-based; conditions: human
[2] = Half-life in BALB/c mouse at 30 mg/kg, po measured upto 24 hrs by LC-MS/MS analysis; assay type: ADME, organism-based; conditions: in vivo
[3] = Observed mean residence time infinity in BALB/c mouse at 5 mg/kg, iv measured upto 24 hrs by LC-MS/MS analysis; assay type: ADME, organism-based; conditions: in vivo
[4] = Cytotoxicity against african green monkey Vero cells incubated for 48 hrs by CCK8 assay; assay type: toxicity, cell-based, Chlorocebus sabaeus
[5] = tested on: Mycobacterium tuberculosis; experiment: Binding affinity to Mycobacterium tuberculosis AccD5 at 10 uM by SPR analysis
[6] = Observed volume of distribution at steady state in BALB/c mouse at 5 mg/kg, iv measured upto 24 hrs by LC-MS/MS analysis; assay type: ADME, organism-based; conditions: in vivo, read-out: Vdss
[7] = Half-life in BALB/c mouse at 5 mg/kg, iv measured upto 24 hrs by LC-MS/MS analysis; assay type: ADME, organism-based; conditions: in vivo
[8] = Metabolic stability in mouse liver microsomes assessed as intrinsic clearance per mg protein at 2 uM preincubated for 60 mins followed by NADPH addition and measured upto 60 mins by LC-MS analysis; assay type: ADME, Microsome; conditions: time < 120 min, read-out: CLH
[9] = Initial plasma concentration in BALB/c mouse at 5 mg/kg, iv measured upto 24 hrs by LC-MS/MS analysis; assay type: ADME, organism-based
[10] = Metabolic stability in human liver microsomes assessed as substrate remaining at 2 uM preincubated for 60 mins followed by NADPH addition and measured upto 60 mins by LC-MS analysis; assay type: ADME, Microsome; conditions: time < 120 min, read-out: Stability
Mycobacterium marinum [11] = experiment: Antitubercular activity against Mycobacterium […] assessed as bactericidal effect by measuring colony forming unit at 100 uM measured over 10 days; assay type: functional; conditions: time 10 day
[12] = tested on: Mycobacterium tuberculosis; experiment: Antitubercular activity against Mycobacterium tuberculosis H37Rv incubated for 7 days by alamar blue assay; assay type: functional; conditions: 168 h, time 7 day
Mycobacterium marinum [13] = experiment: Antitubercular activity against Mycobacterium marinum infected in adult zebrafish assessed as reduction in bacterial count by measuring CFU at 200 uM measured over 10 days; assay type: functional; conditions: time 10 day
[14] = biological target: Voltage-gated inwardly rectifying potassium channel KCNH2 (Homo sapiens, UniProt Q12809); experiment: Inhibition of human ERG expressed in HEK293 cells by whole cell manual patch clamp method; assay type: toxicity, cell-based
Sequence of Voltage-gated inwardly rectifying potassium channel KCNH2 (Q12809 whole entry): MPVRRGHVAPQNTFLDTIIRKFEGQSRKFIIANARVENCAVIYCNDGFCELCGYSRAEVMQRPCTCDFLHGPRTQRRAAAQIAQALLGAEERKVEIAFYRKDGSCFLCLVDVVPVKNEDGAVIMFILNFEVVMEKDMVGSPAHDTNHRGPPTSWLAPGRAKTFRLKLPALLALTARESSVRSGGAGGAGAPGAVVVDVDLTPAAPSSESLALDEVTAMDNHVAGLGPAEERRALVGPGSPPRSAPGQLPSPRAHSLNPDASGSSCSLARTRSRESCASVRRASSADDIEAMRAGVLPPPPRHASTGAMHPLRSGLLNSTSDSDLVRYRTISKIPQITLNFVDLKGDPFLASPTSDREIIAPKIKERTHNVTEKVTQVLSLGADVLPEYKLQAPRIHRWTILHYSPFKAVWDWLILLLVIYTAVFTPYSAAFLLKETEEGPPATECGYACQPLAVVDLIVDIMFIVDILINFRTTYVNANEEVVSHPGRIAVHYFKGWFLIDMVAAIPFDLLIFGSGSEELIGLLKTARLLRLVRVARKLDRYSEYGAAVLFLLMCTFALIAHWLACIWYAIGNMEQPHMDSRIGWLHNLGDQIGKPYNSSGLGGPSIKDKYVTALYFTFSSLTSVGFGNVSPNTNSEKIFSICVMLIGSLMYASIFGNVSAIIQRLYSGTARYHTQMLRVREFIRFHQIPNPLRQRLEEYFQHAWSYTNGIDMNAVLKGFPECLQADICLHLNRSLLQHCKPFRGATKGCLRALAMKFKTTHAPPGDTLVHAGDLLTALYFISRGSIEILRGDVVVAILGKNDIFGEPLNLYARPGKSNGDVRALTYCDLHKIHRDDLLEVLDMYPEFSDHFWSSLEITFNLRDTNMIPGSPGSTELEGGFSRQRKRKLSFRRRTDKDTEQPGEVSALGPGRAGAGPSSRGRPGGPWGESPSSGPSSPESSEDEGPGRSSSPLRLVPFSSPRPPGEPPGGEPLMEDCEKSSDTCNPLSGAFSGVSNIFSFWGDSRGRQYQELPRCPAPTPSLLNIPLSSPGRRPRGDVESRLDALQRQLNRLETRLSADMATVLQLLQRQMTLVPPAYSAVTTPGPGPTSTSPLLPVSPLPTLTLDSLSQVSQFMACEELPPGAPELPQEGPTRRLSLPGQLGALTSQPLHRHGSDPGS

[15] = Observed extrapolated AUC in BALB/c mouse at 5 mg/kg, iv measured upto 24 hrs by LC-MS/MS analysis; assay type: ADME, organism-based; conditions: in vivo
[16] = AUClast in BALB/c mouse at 5 mg/kg, iv measured upto 24 hrs by LC-MS/MS analysis; assay type: ADME, organism-based; conditions: in vivo
Mycobacterium marinum [17] = experiment: Antitubercular activity against Mycobacterium marinum infected in zebrafish larvae assessed as increase survival rate at 12.5 to 200 uM measured over 10 days by qPCR analysis; assay type: functional, organism-based; conditions: dose 12.5-200 µM, time 10.0 day
[18] = AUClast in BALB/c mouse at 30 mg/kg, po measured upto 24 hrs by LC-MS/MS analysis; assay type: ADME, organism-based; conditions: in vivo
[19] = Dose normalized AUClast in BALB/c mouse at 30 mg/kg, po measured upto 24 hrs by LC-MS/MS analysis; assay type: ADME, organism-based; conditions: in vivo
[20] = AUCinfinity in BALB/c mouse at 30 mg/kg, po measured upto 24 hrs by LC-MS/MS analysis; assay type: ADME, organism-based; conditions: in vivo
[21] = Dose normalized AUClast in BALB/c mouse at 5 mg/kg, iv measured upto 24 hrs by LC-MS/MS analysis; assay type: ADME, organism-based; conditions: in vivo
[22] = Metabolic stability in human liver microsomes assessed as intrinsic clearance per mg protein at 2 uM preincubated for 60 mins followed by NADPH addition and measured upto 60 mins by LC-MS analysis; assay type: ADME, Microsome; conditions: time < 120 min, read-out: CLH
[23] = Observed mean residence time infinity in BALB/c mouse at 30 mg/kg, po measured upto 24 hrs by LC-MS/MS analysis; assay type: ADME, organism-based; conditions: in vivo
[24] = Metabolic stability in mouse liver microsomes assessed as substrate remaining at 2 uM preincubated for 60 mins followed by NADPH addition and measured upto 60 mins by LC-MS analysis; assay type: ADME, Microsome; conditions: time < 120 min, read-out: Stability
[25] = AUCinfinity in BALB/c mouse at 5 mg/kg, iv measured upto 24 hrs by LC-MS/MS analysis; assay type: ADME, organism-based; conditions: in vivo
Mycobacterium marinum [26] = experiment: Antitubercular activity against Mycobacterium marinum infected in adult zebrafish assessed as reduction in bacterial count by measuring CFU at 100 uM measured over 10 days; assay type: functional; conditions: time 10 day
[27] = Metabolic stability in human liver microsomes assessed as half-life at 2 uM preincubated for 60 mins followed by NADPH addition and measured upto 60 mins by LC-MS analysis; assay type: ADME, Microsome; conditions: time < 120 min
Mycobacterium marinum [28] = experiment: Antitubercular activity against Mycobacterium marinum infected in adult zebrafish assessed as reduction in bacterial count by measuring CFU at 50 uM measured over 10 days; assay type: functional; conditions: time 10 day
[29] = Metabolic stability in mouse liver microsomes assessed as half-life at 2 uM preincubated for 60 mins followed by NADPH addition and measured upto 60 mins by LC-MS analysis; assay type: ADME, Microsome; conditions: time < 120 min
[30] = Tmax in BALB/c mouse at 30 mg/kg, po measured upto 24 hrs by LC-MS/MS analysis; assay type: ADME, organism-based; conditions: in vivo
[31] = Cmax in BALB/c mouse at 30 mg/kg, po measured upto 24 hrs by LC-MS/MS analysis; assay type: ADME, organism-based; conditions: in vivo
[32] = Stability in mouse plasma by MS analysis; assay type: ADME, cell-free
Mycobacterium marinum [33] = experiment: Antitubercular activity against Mycobacterium […] assessed as bactericidal effect by measuring colony forming unit at 200 uM measured over 10 days; assay type: functional; conditions: time 10 day
[34] = Observed extrapolated AUC in BALB/c mouse at 30 mg/kg, po measured upto 24 hrs by LC-MS/MS analysis; assay type: ADME, organism-based; conditions: in vivo
[35] = Observed clearance in BALB/c mouse at 5 mg/kg, iv measured upto 24 hrs by LC-MS/MS analysis; assay type: ADME, organism-based; conditions: in vivo
[36] = Oral bioavailability in BALB/c mouse at 30 mg/kg measured upto 24 hrs by LC-MS/MS analysis; assay type: ADME, organism-based; conditions: in vivo
Mycobacterium marinum [37] = experiment: Antitubercular activity against Mycobacterium marinum infected in adult zebrafish assessed as reduction in bacterial count by measuring CFU at 400 uM measured over 10 days; assay type: functional; conditions: time 10 day
[38] = Selectivity index, ratio of IC50 for african green monkey Vero cells to IC50 for Mycobacterium tuberculosis H37Rv; assay type: toxicity; conditions: read-out: Ratio IC50

## CCCSc1nc2c(c(=O)[nH]1)[C@@H](c1ccc(OC)cc1[N+](=O)[O-])CC(=O)N2
[1]
  IC50 at 48 h: 41.1 µg/mL (≈ 105 µM)
[2]
  half-life: 7.95 h
[3]
  MRT inf: 16.4 h
[4]
  IC50 at 48 h: > 64 µg/mL
[5]
  Activity: Active
[6]
  Vd: 0.488 L/kg
[7]
  half-life: 13.1 h
[8]
  microsomal CLint at 2 µM: 4.04 µL/min/mg
[9]
  C0 at 24 h: 32300 ng/mL
[10]
  remaining at 1 h, 2 µM: 83.3%
Mycobacterium marinum [11]
  Activity: 80 CFU
[12]
  MIC: 3 µg/mL (≈ 7.68 µM)
Mycobacterium marinum [13]
  Activity: 1.6 10^4CFU
[14]
  IC50: > 30 µM
[15]
  %AUCextra: 25.2%
[16]
  AUC(0-t) at 24 h: 131 µg·h/mL
Mycobacterium marinum [17]
  Activity: Active
[18]
  AUC(0-t) at 24 h: 595 µg·h/mL
[19]
  AUClast/dose: 19820 kg·ng·h/mL/mg
[20]
  AUC(0-inf): 669 µg·h/mL
[21]
  AUClast/dose: 26110 kg·ng·h/mL/mg
[22]
  microsomal CLint at 2 µM: 6.47 µL/min/mg
[23]
  MRT inf: 10.1 h
[24]
  remaining at 1 h, 2 µM: 86.2%
[25]
  AUC(0-inf): 175 µg·h/mL
Mycobacterium marinum [26]
  Activity: 2.5 10^3CFU
[27]
  half-life at 2 µM: 3.57 h
Mycobacterium marinum [28]
  Activity: 1 10^2CFU
[29]
  half-life at 2 µM: 5.72 h
[30]
  Tmax: 0.417 h
[31]
  Cmax: 54000 ng/mL
[32]
  Stability: Stable
Mycobacterium marinum [33]
  Activity: <10 CFU
[34]
  %AUCextra: 11.2%
[35]
  clearance: 0.5 mL/min/kg
[36]
  bioavailability: 63.8%

## CCCSc1nc2c(c(=O)[nH]1)[C@@H](c1ccc(OC)cc1)CC(=O)N2
[1]
  IC50 at 48 h: 32.5 µg/mL (≈ 94 µM)
[2]
  half-life: 5.14 h
[3]
  MRT inf: 7.8 h
[4]
  IC50 at 48 h: > 64 µg/mL
[6]
  Vd: 0.312 L/kg
[7]
  half-life: 7.01 h
[8]
  microsomal CLint at 2 µM: 3.75 µL/min/mg
[9]
  C0 at 24 h: 45400 ng/mL
[10]
  remaining at 1 h, 2 µM: 69.8%
Mycobacterium marinum [11]
  Activity: <80 CFU
[12]
  MIC: 0.06 µg/mL (≈ 0.174 µM)
Mycobacterium marinum [13]
  Activity: 1.9 10^5CFU
[14]
  IC50: 24.4 µM
[15]
  %AUCextra: 6.41%
[16]
  AUC(0-t) at 24 h: 116 µg·h/mL
Mycobacterium marinum [17]
  Activity: Active
[18]
  AUC(0-t) at 24 h: 410 µg·h/mL
[19]
  AUClast/dose: 13676 kg·ng·h/mL/mg
[20]
  AUC(0-inf): 424 µg·h/mL
[21]
  AUClast/dose: 23295 kg·ng·h/mL/mg
[22]
  microsomal CLint at 2 µM: 11.5 µL/min/mg
[23]
  MRT inf: 6.85 h
[24]
  remaining at 1 h, 2 µM: 88.5%
[25]
  AUC(0-inf): 125 µg·h/mL
Mycobacterium marinum [26]
  Activity: 8 10^3CFU
[27]
  half-life at 2 µM: 2 h
Mycobacterium marinum [28]
  Activity: 2 10^2CFU
[29]
  half-life at 2 µM: 6.16 h
[30]
  Tmax: 0.5 h
[31]
  Cmax: 43300 ng/mL
Mycobacterium marinum [33]
  Activity: <80 CFU
[34]
  %AUCextra: 3.35%
[35]
  clearance: 0.673 mL/min/kg
[36]
  bioavailability: 56.7%

## CO[C@H]1/C=C/O[C@@]2(C)Oc3c(C)c(O)c4c(O)c(c(/C=N/N5CCN(C)CC5)c(O)c4c3C2=O)NC(=O)/C(C)=C\C=C\[C@H](C)[C@H](O)[C@@H](C)[C@@H](O)[C@@H](C)[C@H](OC(C)=O)[C@@H]1C [RIFAMPIN]
[4]
  IC50 at 48 h: > 100 µg/mL
[12]
  MIC: 0.02 µg/mL (≈ 0.0243 µM)
Mycobacterium marinum [26]
  Activity: 4 10^4CFU
Mycobacterium marinum [37]
  Activity: 1.5 10^2CFU
[38]
  selectivity ratio: > 5000
